Our source for the Activity and inhibition values is ChEMBL document CHEMBL1250527, “Chalcone glycosides isolated from aerial parts of Brassica rapa L. 'hidabeni' suppress antigen-stimulated degranulation in rat basophilic leukemia RBL-2H3 cells” (Bioorg Med Chem, 2010).

Active and inactive are the calls of the source. The calls are words filed in the database; no cut-off is given here.

For test [1], the system named is RBL-2H3. Briefly: Antiallergic activity against antigen-IgE-mediated degranulation in rat RBL2H3 cells assessed as inhibition of DNP-BSA-induced intracellular pathway at 50 uM after 30 mins. In kind it is functional, cell-based.
Test [2] relates to RBL-2H3. Briefly: Antiallergic activity against antigen-IgE-mediated degranulation in rat RBL2H3 cells assessed as inhibition of translocation of cytosolic subunit of NADPH oxidase by immunofluorescence technique. The test is classed as functional, cell-based.
In test [3] the test system is RBL-2H3. Briefly: Antiallergic activity against antigen-IgE-mediated degranulation in rat RBL2H3 cells assessed as reduction in DNP-BSA-induced ROS production at 50 uM after 30 mins. The test is classed as functional, cell-based.
In test [4] the test system is RBL-2H3. Briefly: Antioxidant activity […] assessed as DPPH radical scavenging activity. In kind it is functional. A general note: Loss of DPPH colour is used to gauge radical scavenging.
In test [5] the test system is RBL-2H3. Briefly: Antiallergic activity against antigen-IgE-mediated degranulation in rat RBL2H3 cells assessed as reduction in DNP-BSA-induced intracellular calcium level at 50 uM after 30 mins. The test is classed as functional, cell-based.
Test [6] has as its system RBL-2H3. Briefly: Antiallergic activity against antigen-IgE-mediated degranulation in rat RBL2H3 cells assessed as inhibition of DNP-BSA-induced beta-hexosaminidase release at 10 to 100 uM. In kind it is functional, cell-based.
Test [7] relates to RBL-2H3. Briefly: Antiallergic activity against antigen-IgE-mediated degranulation in rat RBL2H3 cells assessed as inhibition of translocation of p47phox cytosolic subunit of NADPH oxidase by immunofluorescence technique. The test is classed as functional, cell-based.
The subject of test [8] is RBL-2H3. Briefly: Inhibition of NOX-mediated calcium in rat RBL2H3 cells mobilization assessed as antigen-IgE-mediated degranulation. The test is classed as cell-based.

Regarding `COc1ccc(/C=C/C(=O)c2ccc(O[C@@H]3O[C@H](CO)[C@@H](O)[C@H](O)[C@H]3O)c(OC)c2)cc1`, the result in the test on RBL-2H3 [1], in the test on RBL-2H3 [2], with RBL-2H3 [3], with RBL-2H3 [5], with RBL-2H3 [6] and in the test with RBL-2H3 [7] was Active. The result in the test with RBL-2H3 [4] was inactive. The inhibition result in the test with RBL-2H3 [8] was “Active”.

On to `COc1cc(C(=O)/C=C/c2ccc(O)cc2)ccc1O[C@@H]1O[C@H](CO)[C@@H](O)[C@H](O)[C@H]1O`, for which the result in the test with RBL-2H3 [1], in the test with RBL-2H3 [2], in the test on RBL-2H3 [3], with RBL-2H3 [5], in the test on RBL-2H3 [6] and in the test on RBL-2H3 [7] was Active. In the test with RBL-2H3 [4], the result was inactive. In the test with RBL-2H3 [8], the inhibition result is “Active”.
